Patent US4933104A, “Anthraquinone derivative as a dichroic dye for a liquid-crystal material, liquid-crystal material and an electrooptical device” (priority 1986, dated 1990)
Several values for one entry are separate records, joined by “and”; a condition that tells them apart may be missing. Equal values may be shown once.

Legend:
Type in all cases: physicochemical
[1] = negative dichroism S in a liquid-crystalline mixture; conditions: liquid-crystalline mixture ZK-807
Protocol: (§1) Table 1 given below lists the values of negative dichroism of the anthraquinone derivative of general formula /1/ for examples 1-30 in a liquid-crystalline mixture ZK-807; Table 2 illustrates physico-chemical characteristics, and Table 3--limiting solubility in liquid-crystalline mixtures (ZK-807, ZLI-1840, 3010, SP-586, ZK-1282) at 20° C.

[2] = λmax of the long-wave absorption band of the dye; conditions: Table 1 / Examples; several values = several maxima
Protocol: as §1

[3] = limiting solubility in liquid-crystalline mixtures at 20° C.; conditions: for solubility exceeds the solubility of the known analogue: ratio to known derivative, No. 2, 7 and 6 of Table 3 vs No. 1, 5 and 6 of Table 6; for Solubility (limiting), known derivatives: Table 6, derivatives of SU 1089084

| SMILES | negative dichroism S [1] | λmax [2] | Solubility (limiting) ([3]; 3010, 20° C.) | Solubility (limiting) ([3]; ZK-807, 20° C.) | Solubility (limiting) ([3]; ZK-1282, 20° C.) | Solubility (limiting) ([3]; ZLI-1840, 20° C.) | Solubility (limiting) ([3]; SP-586, 20° C.) | solubility exceeds the solubility of the known analogue [3] | Solubility (limiting), known derivatives ([3]; ZK-807, 20° C.) | Solubility (limiting), known derivatives ([3]; ZLI-1840, 20° C.) |
| --- | --- | --- | --- | --- | --- | --- | --- | --- | --- | --- |
| CCCCc1ccc(C(=O)Nc2cc(CCCC)c(O)c3c2C(=O)c2c(NC(=O)c4ccc(CCCC)cc4)cc(CCCC)c(OC(=O)c4ccc(CCCC)cc4)c2C3=O)cc1 [Compound 18, 1,8-bis-(4-butylbenzamido)-4-(4-butylbenzoyloxy)-3,6-dibutyl-5-oxyanthraquinone] | -0.31 | 534 nm | 0.7 mass % | 2.7 mass % | – | – | – | – | – | – |
| CCCCCC1CCC(c2ccc(C(=O)Nc3cc(CCCC)c(OC(=O)c4ccc(C5CCC(CCCCC)CC5)cc4)c4c3C(=O)c3c(NC(=O)c5ccc(C6CCC(CCCCC)CC6)cc5)cc(CCCC)c(OC(=O)c5ccc(C6CCC(CCCCC)CC6)cc5)c3C4=O)cc2)CC1 (centres unmarked) [Compound 8] | -0.38 | 466 nm | 2.6 mass % | 11.0 mass % | 1.8 mass % | 5.7 mass % | – | – | – | – |
| CCCCc1cc(NC(=O)c2ccc(C3CCC(CCCC)CC3)cc2)c2c(c1O)C(=O)c1c(OC(=O)CCC)c(CCCC)cc(NC(=O)c3ccc(C4CCC(CCCC)CC4)cc3)c1C2=O (centres unmarked) [Compound 23] | -0.36 | 542 nm | 2.0 mass % | 1.7 mass % | – | 2.6 mass % | – | – | – | – |
| CCCCc1cc(NC(=O)C2CCC(CCCC)CC2)c2c(c1OC(=O)c1ccc(C3CCC(CCCC)CC3)cc1)C(=O)c1c(OC(=O)c3ccc(C4CCC(CCCC)CC4)cc3)c(CCCC)cc(NC(=O)C3CCC(CCCC)CC3)c1C2=O (centres unmarked) [Compound 10] | -0.35 | 466 nm | 9.0 mass % | 10.8 mass % | – | 7.2 mass % | 7.5 mass % | – | – | – |
| CCCCCc1cc(NC(=O)c2ccc(CCCC)cc2)c2c(c1OC(=O)c1ccc(CCCC)cc1)C(=O)c1c(OC(=O)c3ccc(CCCC)cc3)c(CCCCC)cc(NC(=O)c3ccc(CCCC)cc3)c1C2=O [Compound 14] | -0.32 | 458 nm and 470 nm | 4.46 mass % | 9.5 mass % | 4.0 mass % | 3.8 mass % | 3.78 mass % | – | – | – |
| CCCCc1ccc(C(=O)Nc2cc(CCCC)c(NC(=O)c3ccc(CCCC)cc3)c3c2C(=O)c2ccccc2C3=O)cc1 [Compound 2, 1,4-Bis(4-butylbenzamido)-2-butylanthraquinone] | -0.22 | 475 nm | – | 4.0 mass % | – | 3.6 mass % | 2.9 mass % | 2.5 times | – | – |
| CCCCCc1cc(NC(=O)c2ccc(CCCC)cc2)c2c(c1O)C(=O)c1c(OC(=O)c3ccc(CCCC)cc3)c(CCCCC)cc(NC(=O)c3ccc(CCCC)cc3)c1C2=O [Compound 25] | -0.30 | 540 nm | 0.9 mass % | 3.0 mass % | – | 1.0 mass % | – | – | – | – |
| CCCCCC1CCC(c2ccc(C(=O)Nc3cc(CCCC)c(OC(=O)C4CCC(CCCC)CC4)c4c3C(=O)c3c(NC(=O)c5ccc(C6CCC(CCCCC)CC6)cc5)cc(CCCC)c(OC(=O)C5CCC(CCCC)CC5)c3C4=O)cc2)CC1 (centres unmarked) [Compound 9] | -0.38 | 475 nm | 9.0 mass % | 9.0 mass % | – | 7.7 mass % | – | – | – | – |
| CCCCCCCCc1ccc(-c2ccc(C(=O)Nc3ccc(NCCCC)c4c3C(=O)c3ccccc3C4=O)cc2)cc1 [No. 1, Table 6, reference compound] | – | – | – | – | – | – | – | – | 0.8 mass % | 0.4 mass % |
| CCCCc1cc(NC(=O)c2ccc(C3CCC(CCCC)CC3)cc2)c2c(c1O)C(=O)c1c(O)c(CCCC)cc(NC(=O)c3ccc(C4CCC(CCCC)CC4)cc3)c1C2=O (centres unmarked) [Compound 30] | -0.34 | 566 nm and 608 nm | – | – | – | – | – | – | – | – |
| CCCCC[C@H]1CC[C@H](c2ccc(C(=O)Nc3cc(CCCC)c(O)c4c3C(=O)c3c(NC(=O)c5ccc([C@H]6CC[C@H](CCCCC)CC6)cc5)cc(CCCC)c(O)c3C4=O)cc2)CC1 [Compound 29, 1,8-Bis-4-(trans-4-amylcyclohexyl)benzamido-3,6-dibutyl-4,5-dioxyanthraquinone] | -0.32 | 563 nm and 606 nm | 1.0 mass % | 1.0 mass % | 1.0 mass % | 1.0 mass % | – | – | – | – |
| CCCCc1ccc(C(=O)Nc2cc(CCCC)c(OC(=O)c3ccc(CCCC)cc3)c3c2C(=O)c2c(NC(=O)c4ccc(CCCC)cc4)cc(CCCC)c(OC(=O)c4ccc(CCCC)cc4)c2C3=O)cc1 [Compound 6, 1,8-Bis-(4-butylbenzamido)-4,5-bis-(4.butylbenzoyloxy)-3,6-dibutylanthraquinone] | -0.33 | 468 nm | 4.6 mass % | 9.0 mass % | 4.0 mass % | – | 4.0 mass % | 18 times | – | – |
| CCCCCCc1ccc(C(=O)Nc2cc(CCCCC)c(O)c3c2C(=O)c2c(NC(=O)c4ccc(CCCCCC)cc4)cc(CCCCC)c(OC(=O)c4ccc(CCCCCC)cc4)c2C3=O)cc1 [Compound 26] | -0.31 | 542 nm | 1.0 mass % | 2.9 mass % | 0.7 mass % | 1.1 mass % | – | – | – | – |
| CCCCCC1CCC(c2ccc(C(=O)Nc3ccc(O)c4c3C(=O)c3c(NC(=O)c5ccc(C6CCC(CCCCC)CC6)cc5)cc(CCCC)c(O)c3C4=O)cc2)CC1 (centres unmarked) [Compound 28] | -0.32 | 564 nm and 605 nm | 1.1 mass % | 0.6 mass % | 1.0 mass % | 1.0 mass % | 0.8 mass % | – | – | – |
| CCCCCC1CCC(c2ccc(C(=O)Nc3cc(CCCC)c(O)c4c3C(=O)c3c(NC(=O)c5ccc(C6CCC(CCCCC)CC6)cc5)cc(CCCC)c(OC(=O)CCC)c3C4=O)cc2)CC1 (centres unmarked) [Compound 22] | -0.38 | 545 nm | 2.0 mass % | 1.1 mass % | 1.5 mass % | 1.4 mass % | 1.2 mass % | – | – | – |
| CCCCCC1CCC(c2ccc(C(=O)Nc3cc(CCCC)c(OC(=O)CCC)c4c3C(=O)c3c(NC(=O)c5ccc(C6CCC(CCCCC)CC6)cc5)cc(CCCC)c(OC(=O)CCC)c3C4=O)cc2)CC1 (centres unmarked) [Compound 12] | -0.35 | 473 nm | 1.82 mass % | 5.2 mass % | – | – | – | – | – | – |
| CCCCCC1CCC(c2ccc(C(=O)Nc3cc(CCCC)c(O)c4c3C(=O)c3c(NC(=O)c5ccc(C6CCC(CCCCC)CC6)cc5)cc(CCCC)c(OC(=O)c5ccc(C6CCC(CCCCC)CC6)cc5)c3C4=O)cc2)CC1 (centres unmarked) [Compound 19] | -0.38 | 540 nm | 4.8 mass % | – | – | 2.5 mass % | 2.9 mass % | – | – | – |
| CCCCCc1ccc(-c2ccc(C(=O)Nc3ccc(NCCCC)c4c3C(=O)c3ccccc3C4=O)cc2)cc1 [No. 2, Table 6, reference compound] | – | – | – | – | – | – | – | – | 0.9 mass % | 0.5 mass % |
| CCCCCC1CCC(c2ccc(C(=O)Nc3cc(CCCC)c(O)c4c3C(=O)c3c(NC(=O)c5ccc(C6CCC(CCCCC)CC6)cc5)cc(CCCC)c(OC(=O)C5CCC(CCCC)CC5)c3C4=O)cc2)CC1 (centres unmarked) [Compound 21] | -0.37 | 542 nm | 3.3 mass % | – | 2.7 mass % | 3.0 mass % | – | – | – | – |
| CCCCCCCCNc1cc(CCCC)c(NC(=O)c2ccc(-c3ccc(CCCCCCCC)cc3)cc2)c2c1C(=O)c1ccccc1C2=O [Compound 1] | – | – | – | 2.0 mass % | – | – | – | – | – | – |
